Non-standard residues stand in square brackets, D forms with d. Residues, ends and D or L forms follow the SMILES beside them. *: point of attachment. Hexanoyl = CCCCCC(=O)*; Ahx = NCCCCCC(=O)O
Legend:
Oral bioavailability = details: in vivo
[1] = system: rat scopolamine amnesia model; experiment: Scopolamine Morris water maze study; format: in vivo; details: 1 mg/kg SC
Protocol: Animals were maintained in accordance with the National Institute of Health Guide for the Care and Use of Laboratory Animals. Rats (14-week-old male Sprague Dawley) from Simonsen laboratories (Gilroy, CA) were used in the scopolamine Morris water maze study. This study was performed at Washington State University and procedures were approved by the Washington State University Institutional Animal Care and Use Committee.
Animals were anesthetized with ketamine hydrochloride plus xylazine (70 mg/kg and 7 mg/kg intraperitoneally, respectively). An intracerebroventricular (ICV) guide cannula (PE-60; Clay Adams, Parsippany, NY) was stereotaxically positioned (model 900; David Kopf Instruments, Tujunga, CA) in the right hemisphere of the brain 1.0 mm posterior and 1.5 mm lateral to the bregma. The guide cannula measured 1.5 cm in length with a heat bulge at 2.5 mm from the beveled tip to control insertion depth. Once in position, the cannula was secured to the skull with screws and dental cement. Animals were housed individually and hand-gentled for 6 days of postsurgical recovery. Histologic verification of cannula placement was accomplished by ICV injection of 4 μL cresyl violet after completion of behavioral testing. Animals for which cannulas were improperly placed were removed from the study.
The Morris water maze consisted of a 183-cm diameter, 64-cm deep tank with a clear circular platform (16-cm diameter) placed 30 cm from the maze wall and submerged 1 cm below the surface of the 26.7 °C water. The maze was virtually divided into 4 equal quadrants with the platform centered in 1 quadrant. Eight visual cues were randomly placed on the maze wall and these cues remained consistent throughout the trials.
Animals received either fosgo-AM (1 mg/kg in DMSO) or volume-matched vehicle (DMSO) by subcutaneous (SC) injection 45 min before testing, followed by ICV injection of scopolamine hydrobromide (105 nmol in 4 μL artificial cerebrospinal fluid [aCSF] over a duration of 40 s) 20 min before testing. […]
Probe trials were conducted on day 9 to determine learning persistence. […] The percentage of trial time spent within the platform region, the number of times that the animal crossed into the platform region, and the average distance from the center of the platform region were recorded. The swimming patterns of the rats were recorded using video tracking software (MediaRecorder and EthoVision software, Noldus, VA, USA).
The daily escape latency (defined as the mean latency to find the platform each day) was calculated for each animal. […] Data collected during the probe trials were assessed for normality (Shapiro–Wilk) and homoscedasticity (Brown-Forsythe) and subsequently analyzed using one-way ANOVA with Bonferroni post hoc tests compared with scopolamine + vehicle controls. […]

[2] = probe trial day 9, vs scopolamine + vehicle

oral bioavailability (Oral bioavailability): poor oral bioavailability
Compound: CCCCCC(=O)N[C@@H](Cc1ccc(O)cc1)C(=O)N[C@H](C(=O)NCCCCCC(N)=O)[C@@H](C)CC [fosgo-AM] (Hexanoyl-Tyr-Ile-[Ahx]-NH2)
escape latency ([1]; 8-day acquisition, scopolamine ICV): reduced escape latency over time | frequency of entering the platform zone [1, 2]: significantly improved | mean distance from the center of the platform [1, 2]: significantly improved | percentage of time spent in the platform zone [1, 2]: significantly improved

— publication PMC10121968, “Fosgonimeton, a Novel Positive Modulator of the HGF/MET System, Promotes Neurotrophic and Procognitive Effects in Models of Dementia” (Neurotherapeutics, 2022)
